The conditions of data set [1]: cited from earlier work; for bioavailability of the drug: tromethamine or sodium salts, British Pat. No. 2,059,768, German Pat. No. 134,672.
The conditions of data set [2]: in vivo.

Turning to `CC1=C(CC(=O)O)c2cc(F)ccc2C1=Cc1ccc([S+](C)[O-])cc1` (centres unmarked) [sulindac], the duration of action result in data set [1] (NSAID, reduction-oxidation prodrug) is given as “long duration of action”. The onset of activity result in data set [1] (sulindac, commercialized as CLINORIL) is “slow onset of activity”.
For `CC1=C(CC(=O)O)c2cc(F)ccc2/C1=C\c1ccc([S+](C)[O-])cc1` (centres unmarked) [sodium sulindac], the absorption of sulindac result in data set [2] is “Extremely rapid absorption”.
With `CC(=O)Oc1ccccc1C(=O)O` [aspirin], the “bioavailability of the drug” value in data set [1] was “enhanced bioavailability”.
Regarding `COc1ccc2c(c1)c(CC(=O)O)c(C)n2C(=O)c1ccc(Cl)cc1` [indomethacin], in data set [1], the “bioavailability of the drug” value is “enhanced bioavailability”.

Source of the values: patent publication US4704405A (priority 1986, dated 1987).
